Experimental data taken from patent publication US10807960B2, “Compounds, compositions, and methods for controlling biofilms” (KATHOLIEKE UNIVERSITEIT LEUVEN, priority 2015, dated 2020).
Read-outs that look alike come from different tables or passages of the source.

Key:
C. albicans SC5314 = assay: inhibition of C. albicans biofilms, cell titer blue (CTB) quantification; format: cell-based, Candida albicans; conditions: monospecies biofilm; novel compounds: highest concentration tested 100 μM
Protocol: The potential of the compounds to prevent C. albicans SC5314 biofilm formation was assessed using the cell titer blue (CTB) quantification method (26). For the CTB method, an overnight culture of C. albicans SC5314 was washed with PBS and a cell suspension of 10^6 cells/ml (OD600=0.1) was prepared in RPMI 1640 medium (pH 7.0). […] After 16 h of static incubation at 37° C., biofilms were washed and quantified with CTB as described previously.

[1] = tested on: C. albicans SC5314 + S. epidermidis; assay: mixed C. albicans/S. epidermidis biofilm assay, selective plating; format: cell-based, Candida albicans; Staphylococcus epidermidis; conditions: for activity at 25 µM: 25 μM (Table 5); for activity at 100 µM: 100 μM (Table 5)
Protocol: The concentrations 25 μM (0.0625% DMSO or ethanol) and 100 μM (0.25% DMSO or ethanol) were tested. After 24 h of incubation at 37° C., biofilms were washed with PBS and fresh medium with or without compounds was added. After further incubation for 48 h at 37° C., the biofilms were washed with PBS after which the cells were re-suspended in 100 μl of PBS by scraping off, sonication (1 min, 45 kHz, USC300-T; VWR, Radnor, Pa., USA) and vigorously pipetting up-and-down. Finally, the biofilm cells were diluted in PBS and plated on YPD agar plates containing 100 mg/L ampicillin and TSA plates containing 25 mg/L amphotericin B, to determine the number of fungal and bacterial CFUs after 2 days of incubation at 37° C., respectively. The percentage of C. albicans SC5314 and S. epidermidis cells was determined relative to the DMSO or ethanol control treatment.

[2] = tested on: bone-marrow derived mesenchymal stem cells (MSC); assay: mammalian-cell viability assay, trypan blue staining; format: cell-based; conditions: 12.5 μM, 6 days exposure
Protocol: (§1) Cell viability of two human primary cell types, namely, osteoblasts (OB) and bone-marrow derived mesenchymal stem cells (MSC) was tested according to the ISO 10993-5 standard, as previously described. Briefly, cells were seeded in 96-well tissue culture test plates (TPP, Switzerland) at 5×10^3 cells/cm^2 in Advanced DMEM cell culture media supplemented with 10% serum, 1× GlutaMAX, 0.05 mg/mL Gentamycin, and were allowed to attach overnight. The next day, the cells were exposed to (i) cell culture medium and medium with the corresponding control (0.5% ethanol or DMSO) (negative controls), (ii) medium with 0.05% phenol (cytotoxic control), and (iii) medium with compounds (12.5 μM) and incubated for 2 h, 48 h and 6 days (8 repeats for each condition). At each time-point the numbers of viable and dead cells were determined directly by trypan blue staining, and indirectly by measuring the metabolic activity with MTT (3-(4,5-dimethylthiazol-2-yl)-2,5-diphenyltetrazolium bromide) staining.
(§2) The medium was removed from the wells, and 1/3 trypan blue in Dulbecco's modified Eagle's medium (DMEM) was added to the cells, incubated for 3 min, after which trypan blue was removed and DMEM medium was added to the wells. In each of four wells, two microscopy fields were counted for viable (transparent) and dead (blue) cells.

osteoblasts (OB) [3] = assay: as above; format: cell-based; conditions: 12.5 μM, 6 days exposure
Protocol: as §1, §2

[4] = tested on: bone-marrow derived mesenchymal stem cells (MSC); assay: metabolic activity, MTT staining; format: cell-based; conditions: 12.5 μM, 6 days treatment
Protocol: as §1
(§3) The medium was removed from the wells and 100 μl of medium, supplemented with 10% serum and 0.5 mg/mL MTT was added to the cells. The cells were incubated overnight at 37° C. and 5% CO2. The next day the medium with MTT was removed and 100 μl acidic isopropanol was added. The cells were then centrifuged at 2300 g and 50 μl of the supernatant was transferred to a new 96-well plate. The absorbance was measured at 570 nm and the background was measured at 660 nm. Four wells per condition were examined.

osteoblasts (OB) [5] = assay: metabolic activity, MTT staining; format: cell-based; conditions: 12.5 μM, 6 days treatment
Protocol: as §1, §3

[6] = tested on: bone-marrow derived mesenchymal stem cells (MSC); assay: osteogenic differentiation, calcium and DNA assay; format: cell-based, human; conditions: 12.5 μM, calcium content normalized by DNA, versus solvent control
Protocol: (§4) The effect on osteogenic differentiation potential was assessed as previously described. Only the substances that allowed survival of the cells for more than 3 weeks, which is the time needed for mature osteogenic differentiation, were tested. Briefly, osteoblasts and bone-marrow derived mesenchymal stem cells were cultured in a positive solvent control (osteogenic medium with 0.5% DMSO or ethanol background), a negative control (medium without osteogenic supplements) and treated samples (osteogenic medium, 0.5% DMSO or ethanol background and 12.5 μM of test compound) with four repeats per condition. Mesenchymal stem cells and osteoblast cell cultures were harvested after 3 or 5 weeks, respectively, for the calcium and DNA assay.
(§5) Calcium deposition of osteoblasts and mesenchymal stem cells was measured with the Calcium CPC LiquiColor test (Stanbio Laboratory, Boerne, Tex.) as previously described. Briefly, cell cultures were extracted with 5% trichloroacetic acid (500 μl per sample), O-cresolphtalein complex was added, and the calcium content was determined spectrophotometrically at 550 nm. DNA content was determined as previously described. DNA values were used to normalize the calcium content. Four wells per condition were examined, and two samples from each well were taken for each assay.

osteoblasts (OB) [7] = assay: osteogenic differentiation, calcium and DNA assay; format: cell-based, human; conditions: 12.5 μM, calcium content normalized by DNA, versus solvent control
Protocol: as §4, §5

[8] = C. albicans in mixed biofilm with S. epidermidis, read-out: CFUs % survival C.a.

| SMILES | anti-biofilm activity (in words) (C. albicans SC5314) | effect on the C. albicans/S. epidermidis mixture (in words) [1] | activity at 25 µM [1, 8] [%] | activity at 100 µM [1, 8] [%] | proliferation (in words) [2] | proliferation (in words) (osteoblasts (OB) [3]) | metabolic activity compared to the solvent control (in words) [4] | metabolic activity compared to the solvent control (in words) (osteoblasts (OB) [5]) | calcium deposition (in words) [6] | calcium deposition (in words) (osteoblasts (OB) [7]) | activity at 25 µM ([1]; S. epidermidis in mixed biofilm with C. albicans, read-out: CFUs % survival S.c.) [%] | activity at 100 µM ([1]; S. epidermidis in mixed biofilm with C. albicans, read-out: CFUs % survival Se.) [%] |
| --- | --- | --- | --- | --- | --- | --- | --- | --- | --- | --- | --- | --- |
| CCCCCCCCn1c(-c2ccc(Cl)c(Cl)c2)cnc1NCC(C)C [Compound 8d, 5-(3,4-dichlorophenyl)-N-isobutyl-1-octyl-1H-imidazol-2-amine] | not active | only reduced C. albicans | 2.5 | 1.4 | increase in proliferation | increase in proliferation | increased | increased | none of the compounds negatively affected the calcium deposition | none of the compounds negatively affected the calcium deposition |  |  |
| CCCCCCCCn1c(-c2ccc(Br)cc2)cnc1NC1CCCC1 [Compound 8g, 5-(4-bromophenyl)-N-cyclopentyl-1-octyl-1H-imidazol-2-amine] |  |  | 3.3 | 5.9 | slightly reduced | increase in proliferation | increased | increased | induced the calcium deposition | induced the calcium deposition | 0 | 0 |
